Source: patent US20100021940A1, “Method for Determining the Activity of a Protease in a Sample” (ASTRAZENECA AB, priority 2006, published 2010)
Values joined by “and” are separate entries in the source; they are usually repeats but may differ in a detail not shown here. Equal values may be shown once.

Legend:
[1] = system: MMPs; assay: Cleavage of separated diastereomers by MMPs to liberate the reporter; format: biochemical
[2] = system: MMP; assay: MMP activity in synovial fluid (reporter release, HPLC); format: biochemical, human
Method: Synovial fluid (SF) was obtained from patients with rheumatoid arthritis (7 subjects) and systemic lupus erythematosus (SLE) (1 subject).
The amount of each sample was adjusted so that approximately 4 mg of total protein was used in the assay (Table 13).
The samples were made up to 180 μl with a buffer consisting of 50 mM Tricine pH 7.5, 200 mM NaCl, 10 mM CaCl2, 20 μM ZnCl2 and 0.05% Brij-35.
To the samples was added 20 μl of the substrate Methyl 1-acetyl-L-prolyl-L-leucylglycyl-α-R-(4-nitrophenylamino)-glycyl-L-leucylglycinate (Example 1.2) solution (10 mM in methanol). After 3 h incubation at 37° C., the reaction was stopped with 5 μl 200 mM EDTA. The samples were filtered through a precolumn (Waters OASIS HLB Icc, part no. 94225, pre-conditioned with 1 ml of ethanol followed by 1 ml water) which was eluted with 1 ml water and 1 ml of 90% ethanol. The samples were evaporated to dryness under a stream of nitrogen, redissolved in 200 μl 50% ethanol and vigorously mixed with vortex mixer and centrifuged (1000 g, 2 min). Of the supernatant, 10-160 μl aliquots were analysed for the reporter 4-nitroaniline with HPLC (detection as in example 3 or with UV at […]). A standard curve was obtained by from samples spiked with quantified amounts of the reporter (4NA) and treated in the same way as the analytical samples.

[3] = molecular target: MMP3 (Homo sapiens, UniProt P08254); assay: Activity of purified MMP on substrate (reporter release); format: biochemical; conditions: Table 1b; MMP3
Source text: (§1) In order to confirm the specificity of the substrates for various MMPs, standard enzymatic assays were adapted to monitor the release of reporter. The reporter was either analysed by a LC-MS method as described in Example 3a, or by a LC-UV method as described in Example 4. A protocol for testing against other matrix metalloproteinases, including MMP9, using expressed and purified pro MMP is described, for instance, by C.

[4] = molecular target: T1, MMP1 (Homo sapiens, UniProt P03956); assay: as above; format: biochemical; conditions: Table 1b; MMP1
T1 sequence (P03956 100-469): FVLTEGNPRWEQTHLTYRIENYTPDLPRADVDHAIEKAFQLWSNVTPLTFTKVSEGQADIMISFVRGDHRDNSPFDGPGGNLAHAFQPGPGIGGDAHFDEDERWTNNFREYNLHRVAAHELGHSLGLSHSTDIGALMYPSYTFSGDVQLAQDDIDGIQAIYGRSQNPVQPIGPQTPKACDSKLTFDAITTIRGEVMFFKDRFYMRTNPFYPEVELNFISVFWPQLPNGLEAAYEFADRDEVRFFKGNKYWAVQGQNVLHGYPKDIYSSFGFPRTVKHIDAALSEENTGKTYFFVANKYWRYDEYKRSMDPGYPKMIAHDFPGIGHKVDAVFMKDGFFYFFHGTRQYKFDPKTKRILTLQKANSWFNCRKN
Source text: as §1

[5] = molecular target: T2, MMP8 (Homo sapiens, UniProt P22894); assay: as above; format: biochemical; conditions: Table 1b; MMP8
T2 construct: purchased Calbiochem
Method: In order to confirm the specificity of the substrates for various MMPs, standard enzymatic assays were adapted to monitor the release of reporter. The reporter was either analysed by a LC-MS method as described in Example 3a, or by a LC-UV method as described in Example 4. Purified pro-MMP8 is purchased from Calbiochem. The enzyme (at 10 μg/ml) is activated by p-amino-phenyl-mercuric acetate (APMA) at 1 mM for 2.5 h, 35° C. The activated enzyme can be used to monitor activity of substrates as follows: MMP8 (200 ng/ml final concentration) is incubated for 90 minutes at 35° C.

[6] = system: MMP9; assay: as above; format: biochemical, human; conditions: Table 1b; MMP9
Source text: In order to confirm the specificity of the substrates for various MMPs, standard enzymatic assays were adapted to monitor the release of reporter. The reporter was either analysed by a LC-MS method as described in Example 3a, or by a LC-UV method as described in Example 4. […] The enzyme can be used to monitor activity of substrates as follows: […]

T2 sequence (P22894 101-467): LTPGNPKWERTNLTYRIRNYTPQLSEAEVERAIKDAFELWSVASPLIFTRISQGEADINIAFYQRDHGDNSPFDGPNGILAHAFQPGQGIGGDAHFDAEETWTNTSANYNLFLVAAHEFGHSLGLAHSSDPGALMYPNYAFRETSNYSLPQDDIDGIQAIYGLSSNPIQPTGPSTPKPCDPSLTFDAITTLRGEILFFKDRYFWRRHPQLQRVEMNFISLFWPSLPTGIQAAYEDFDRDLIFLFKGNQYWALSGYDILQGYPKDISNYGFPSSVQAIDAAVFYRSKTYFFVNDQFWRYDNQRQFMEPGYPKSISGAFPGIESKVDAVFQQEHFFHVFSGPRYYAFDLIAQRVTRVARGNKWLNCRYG
MMP3, sequence (P08254 100-477): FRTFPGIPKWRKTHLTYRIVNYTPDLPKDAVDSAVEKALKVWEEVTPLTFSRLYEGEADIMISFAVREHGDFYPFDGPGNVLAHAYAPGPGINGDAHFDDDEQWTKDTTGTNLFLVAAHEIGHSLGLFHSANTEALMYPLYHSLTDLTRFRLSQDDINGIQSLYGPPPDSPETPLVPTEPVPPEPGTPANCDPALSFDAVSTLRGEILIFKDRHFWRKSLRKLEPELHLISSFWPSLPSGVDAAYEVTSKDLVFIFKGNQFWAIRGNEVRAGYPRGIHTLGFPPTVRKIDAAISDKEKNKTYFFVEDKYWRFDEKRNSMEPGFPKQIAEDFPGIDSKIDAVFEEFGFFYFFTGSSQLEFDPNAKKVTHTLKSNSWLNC

SMILES | Cleavage by MMPs to liberate the reporter [1] | 4NA released (MMP activity in synovial fluid) ([2]; synovial fluid of individual subjects (rheumatoid arthritis, SLE), approx. 4 mg total protein, 3 h at 37° C.) | Activity of selected substrates with MMPs [3] | Activity of selected substrates with MMPs [4] | release of reporter 4-biphenylmethanol ([2]; pooled sample of synovial fluid from all subjects in Table 13, same procedure) | Activity of selected substrates with MMPs [5] | Activity of selected substrates with MMPs [6]
COC(=O)CNC(=O)[C@H](CC(C)C)NC(=O)[C@@H](NC(=O)CNC(=O)[C@H](CC(C)C)NC(=O)[C@@H]1CCCN1C(C)=O)Nc1ccc([N+](=O)[O-])cc1 [Example 1.2, Methyl 1-acetyl-L-prolyl-L-leucylglycyl-α-R-(4-nitrophenylamino)-glycyl-L-leucylglycinate] | rapidly cleaved by MMPs | 94.4 nmol/ml SF and 17.4 nmol/ml SF and 15.9 nmol/ml SF and 23.9 nmol/ml SF and 26.4 nmol/ml SF and 16.5 nmol/ml SF and 20.6 nmol/ml SF and 12.0 nmol/ml SF |  |  |  |  | 
COC(=O)CNC(=O)[C@H](CC(C)C)NC(=O)[C@@H](NC(=O)CNC(=O)[C@H](CC(C)C)NC(=O)[C@@H]1CCCN1C(C)=O)OCc1ccc(-c2ccccc2)cc1 (single isomer, unassigned) [Example 1.3, Methyl 1-acetyl-L-prolyl-L-leucylglycyl-α-S-(biphenyl-4-ylmethoxy)-glycyl-L-leucylglycinate] | rapidly cleaved by MMPs |  | 5.5 units/s (molRXH/molEnz * s) | 35.4 units/s (molRXH/molEnz * s) | 33.2 nmol/ml SF | 26.9 units/s (molRXH/molEnz * s) | 63.6 units/s (molRXH/molEnz * s)
CC(=O)N1CCC[C@H]1C(=O)N[C@@H](CC(C)C)C(=O)NCC(=O)N[C@@H](Nc1ccc([N+](=O)[O-])cc1)C(=O)N[C@@H](Cc1ccccc1)C(=O)Nc1ccccc1 [Example 1.5, 1-acetyl-L-prolyl-L-leucylglycyl-α-R-(4-nitrophenylamino)-glycyl-N-phenyl-L-phenylalaninamide] | rapidly cleaved by MMPs |  | 0.18 units/s (molRXH/molEnz * s) | 2.48 units/s (molRXH/molEnz * s) |  | 11.4 units/s (molRXH/molEnz * s) | 11.5 units/s (molRXH/molEnz * s)
COC(=O)CNC(=O)[C@H](CC(C)C)NC(=O)[C@@H](NC(=O)CNC(=O)[C@H](CC(C)C)NC(=O)[C@@H]1CCCN1C(C)=O)Nc1ccc(-c2nnc(-c3ccc(C)cc3)o2)cc1 [Example 1.4, Methyl 1-acetyl-L-prolyl-L-leucylglycyl-α-R-[4-(5-p-tolyl-[1,3,4]oxadiazol-2-yl)-phenylamino]-glycyl-L-leucylglycinate] | rapidly cleaved by MMPs |  | 0.00 units/s (molRXH/molEnz * s) | 0.00 units/s (molRXH/molEnz * s) |  | 0.05 units/s (molRXH/molEnz * s) | 0.58 units/s (molRXH/molEnz * s)
